Data from US7960439B1, “Environmentally sensitive foldable oligomers” (Iowa State University Research Foundation, Inc., priority 2006, dated 2011).

What was measured:
[1] = Fluorescence quenching of NBD-labeled cholate oligomers by hydrophilic quencher 11; format: binding
Method: Fluorescence Quenching of the NBD-Labeled Cholate Oligomers 1-4: Typical procedures for the quenching experiment are as follows. Stock solutions (1.0×10^−3 M) of 1-4 in anhydrous THF were prepared. An aliquot (25.0 μL) of the stock solution was diluted by 2.00 mL of carbon tetrachloride with 5 vol. % DMSO in a quartz cuvet. Aliquots (5.0 μL, 0.8 M) of the quencher (11 or 12) in THF were added with a Hamilton Gastight syringe. After each addition, the sample was vortexed for 1 minute before the fluorescence spectrum was recorded. The excitation wavelength was set at 336 nm and the maximum emission intensity at 527 nm was monitored.

[2] = Solvent denaturation of donor-acceptor labeled cholate oligomers followed by FRET (two-state model); format: physicochemical; settings: for m (in parentheses) / ΔG0 (in parentheses): linear fitting of unfolding free energies (FIG. 12); for m / ΔG0: nonlinear least-squares fitting to two-state model (FIG. 11)
From the text: According to the two-state model, at any given concentration of the denaturant (i.e., DMSO), only the folded and unfolded conformations are present and their fractions are represented by fF and fU. Fraction of the unfolded conformation can be calculated by: fU=(IF−I)/(IF−IU) (2) in which I is the observed emission intensity of the acceptor in a given foldamer, IF is the emission intensity of the acceptor in the fully folded conformer, and IU is the emission intensity of the acceptor in the fully unfolded conformer. The equilibrium constant (Keq) and the free energy (ΔG) for the folding reaction can be calculated using ΔG=RT ln Keq=−RT ln(fU/fF)=−RT ln [fU/(1−fU)] (3)
In order to calculate fractions of the unfolded conformations, both IF and IU must be known for different foldamers. The emission intensity of the acceptor in the 1:1 mixture of the monomer A 8 (MA) and monomer D 9(MD) should be good approximations for IU since the emission intensity of the longer foldamers (e.g., pentamer-DA 5 (PDA)) does converge to that of the (MA+MD) mixture upon unfolding. The value of IF, on the other hand, cannot be obtained directly because none of the three foldamers seem to be fully folded under the initial condition of 1% DMSO.
In general, to obtain the values of IF for PDA, hexamer-DA 6 (HXDA), and heptamer-DA 7 (HPDA), it is useful to first make an assumption for fU (e.g., fU=0.1 for the HPDA) in 1% DMSO and use it to calculate the corresponding value of IF, which is designated IF(1). Using IF(1), the first set of fU(1) can be calculated at different DMSO percentages according to equation 2. In the two-state model, the free energies are linearly related to the concentration of denaturant (i.e., DMSO): ΔG=ΔG0−m[DMSO] (4) in which ΔG0 is the free energy for the folding reaction in the absence of denaturant and m measures how sensitive the folding equilibrium is toward DMSO percentage. From equations 2, 3, and 4, the following equation 5 can be obtained, where equation 5 describes the relationship between fU and DMSO percentage: fU=1/{1+1/exp[−(ΔG0−m[DMSO])/RT]} (5)
As a result, the initial values of ΔG0 and m (which are designated as ΔG0(1) and m1) can be obtained by nonlinear least-squares fitting to the first set of fU(1). The resulting ΔG0(1) and m1 are used to calculate the refined value of IF(2) using equations 5 and 2. This process is repeated as long as there is a fairly large difference between the entering IF(n) value and the resulting IF(n+1) value. In general, fitting of the data improves over several rounds of refinement. The refinement is stopped in the end when the values of IF(n) and IF(n+1) are within 1% of each other and are taken as the final value of IF.
In such data processing, it is assumed that IF was independent of DMSO percentage. Such an assumption is expected to underestimate the stability of the cholate foldamers. This is because the emission of MA is shown to be slightly quenched by DMSO—the emission intensity decreases by about 20% over 1-5% DMSO.
FRET Study of the Donor-Acceptor Labeled Cholate Oligomers 5-9 Stock solutions (2.0×10^−4M) of 5-9 in anhydrous THF were prepared. An aliquot (20.0 μL) of the stock solution was diluted by (a) 2.00 mL of ethyl acetate/hexane (v/v=1.05/2) with 1 vol. % DMSO and (b) […] 2.00 mL of ethyl acetate/hexane (v/v=1/1) with 1 vol. % DMSO in a quartz cuvet. Ten aliquots of DMSO (10.0 μL each) were added to the sample. After each addition, the sample was vortexed for 1 minute before the fluorescence spectrum was recorded. The excitation wavelength was set at 287 nm.

[3] = DMSO in ethyl acetate/hexane (1/1)
[4] = DMSO in ethyl acetate/hexane (1/2)

Compound: COC(=O)CCC(C)C1CCC2C3C(O)CC4CC(NC(=O)CCC(C)C5CCC6C7C(O)CC8CC(NC(=O)CCC(C)C9CCC%10C%11C(O)CC%12CC(NC(=O)CCC(C)C%13CCC%14C%15C(O)CC%16CC(NC(=O)CCC(C)C%17CCC%18C%19C(O)CC%20CC(NC(=O)CCC(C)C%21CCC%22C%23C(O)CC%24CC(NC(=O)CCC(C)C%25CCC%26C%27C(O)CC%28CC(Nc%29ccc([N+](=O)[O-])c%30nonc%29%30)CCC%28(C)C%27CC(O)C%25%26C)CCC%24(C)C%23CC(O)C%21%22C)CCC%20(C)C%19CC(O)C%17%18C)CCC%16(C)C%15CC(O)C%13%14C)CCC%12(C)C%11CC(O)C9%10C)CCC8(C)C7CC(O)C56C)CCC4(C)C3CC(O)C12C (stereo not shown) [Compound 4]
- reduction of fluorescence by quencher 11 ([1]; 5.6 mM of 11 in 2% methanol/CCl4): 60 fold
- reduction of fluorescence by quencher 11 ([1]; 5.6 mM of 11 in 5% DMSO/CCl4): < 3 fold

Compound: CC(CCC(=O)Nc1cccc2ccccc12)C1CCC2C3C(O)CC4CC(NC(=O)CCC(C)C5CCC6C7C(O)CC8CC(NC(=O)CCC(C)C9CCC%10C%11C(O)CC%12CC(NC(=O)CCC(C)C%13CCC%14C%15C(O)CC%16CC(NC(=O)CCC(C)C%17CCC%18C%19C(O)CC%20CC(NC(=O)CCC(C)C%21CCC%22C%23C(O)CC%24CC(NS(=O)(=O)c%25cccc%26c(N(C)C)cccc%25%26)CCC%24(C)C%23CC(O)C%21%22C)CCC%20(C)C%19CC(O)C%17%18C)CCC%16(C)C%15CC(O)C%13%14C)CCC%12(C)C%11CC(O)C9%10C)CCC8(C)C7CC(O)C56C)CCC4(C)C3CC(O)C12C (stereo not shown) [Compound 6]
- m (in parentheses) [2, 3]: 0.89 kcal/mol
- ΔG0 (in parentheses) [2, 3]: 1.9 kcal/mol
- m [2, 3]: 0.81 ± 0.06 kcal/mol
- ΔG0 [2, 3]: 1.8 ± 0.1 kcal/mol
- m (in parentheses) [2, 4]: 0.52 kcal/mol
- ΔG0 (in parentheses) [2, 4]: 1.8 kcal/mol
- m [2, 4]: 0.50 ± 0.02 kcal/mol
- ΔG0 [2, 4]: 1.7 ± 0.1 kcal/mol
